Measurements: PubChem BioAssay AID1963973 (Molecular Pharmacology Branch, DTP, NCI, 2024)
pIC50: −log10 of the molar value. Values belong to the molecule of their own block, whether it stands above or below them.

System: 883617-216-R-J1-PDC tumor spheroids, viability
Test: Anticancer human tumor 883617-216-R-J1-PDC patient-derived bladder carcinoma cell line growth inhibition [PI3K]
Conditions: spheroids with HUVEC and MSC; for pIC50: curve of first compound; for viability, T/C: stronger effect = lower value
Procedure, shortened: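 High-throughput combination screen: PI3K inhibitors crossed with targeted small molecules on complex spheroids of tumor cells, HUVEC and MSCs at 37 degrees C, 5% CO2. Top concentration was at or near clinical Cmax (otherwise 10 microM), with half-log decrements.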
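Also: spheroids exposed to agents for 7 days before the viability read.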

- pIC50 (second compound 0.0316 µM): > 7.50
- pIC50 (second compound 0.1 µM): > 7.50
- pIC50 (second compound 0.316 µM): > 7.50
- pIC50 (second compound 1 µM): > 7.50
- pIC50 (second compound 3.16 µM): > 7.50
- pIC50 (second compound 10 µM): > 7.50
SMILES: CC1(C)CCC(Nc2ncc(C(F)(F)F)c(-c3c[nH]c4c(P(C)(C)=O)c(C#N)ccc34)n2)CN1 (centres undefined) + CC(Nc1ncnc2nc[nH]c12)c1cc2cccc(Cl)c2c(=O)n1-c1ccccc1
- viability, T/C (second compound 0.0316 µM, first compound 0.0316 µM): 37.5%
- viability, T/C (second compound 0.0316 µM, first compound 0.1 µM): 37.6%
- viability, T/C (second compound 0.0316 µM, first compound 0.316 µM): 36.1%
- viability, T/C (second compound 0.0316 µM, first compound 1 µM): 31.7%
- viability, T/C (second compound 0.0316 µM, first compound 3.16 µM): 14.5%
- viability, T/C (second compound 0.0316 µM, first compound 10 µM): 0.45%
- viability, T/C (second compound 0.1 µM, first compound 0.0316 µM): 36.2%
- viability, T/C (second compound 0.1 µM, first compound 0.1 µM): 30.1%
- viability, T/C (second compound 0.1 µM, first compound 0.316 µM): 32.6%
- viability, T/C (second compound 0.1 µM, first compound 1 µM): 30.9%
- viability, T/C (second compound 0.1 µM, first compound 3.16 µM): 13.9%
- viability, T/C (second compound 0.1 µM, first compound 10 µM): 1.12%
- viability, T/C (second compound 0.316 µM, first compound 0.0316 µM): 33.4%
- viability, T/C (second compound 0.316 µM, first compound 0.1 µM): 35.1%
- viability, T/C (second compound 0.316 µM, first compound 0.316 µM): 31.1%
- viability, T/C (second compound 0.316 µM, first compound 1 µM): 26.5%
- viability, T/C (second compound 0.316 µM, first compound 3.16 µM): 13.9%
- viability, T/C (second compound 0.316 µM, first compound 10 µM): 1.62%
- viability, T/C (second compound 1 µM, first compound 0.0316 µM): 33.6%
- viability, T/C (second compound 1 µM, first compound 0.1 µM): 33.7%
- viability, T/C (second compound 1 µM, first compound 0.316 µM): 28.8%
- viability, T/C (second compound 1 µM, first compound 1 µM): 28.1%
- viability, T/C (second compound 1 µM, first compound 3.16 µM): 11.7%
- viability, T/C (second compound 1 µM, first compound 10 µM): 0.54%
- viability, T/C (second compound 3.16 µM, first compound 0.0316 µM): 29.7%
- viability, T/C (second compound 3.16 µM, first compound 0.1 µM): 27.3%
- viability, T/C (second compound 3.16 µM, first compound 0.316 µM): 28.8%
- viability, T/C (second compound 3.16 µM, first compound 1 µM): 24.7%
- viability, T/C (second compound 3.16 µM, first compound 3.16 µM): 15%
- viability, T/C (second compound 3.16 µM, first compound 10 µM): 1.34%
- viability, T/C (second compound 10 µM, first compound 0.0316 µM): 25.7%
- viability, T/C (second compound 10 µM, first compound 0.1 µM): 20.8%
- viability, T/C (second compound 10 µM, first compound 0.316 µM): 21.8%
- viability, T/C (second compound 10 µM, first compound 1 µM): 20.9%
- viability, T/C (second compound 10 µM, first compound 3.16 µM): 19.2%
- viability, T/C (second compound 10 µM, first compound 10 µM): 0.84%

- pIC50 (second compound 0.00316 µM): 7.63
- pIC50 (second compound 0.01 µM): > 8.02
- pIC50 (second compound 0.0316 µM): > 8.02
- pIC50 (second compound 0.1 µM): > 8.02
- pIC50 (second compound 0.316 µM): > 8.02
- pIC50 (second compound 1 µM): > 8.02
SMILES: Cn1cnc2c(F)c(Nc3ccc(Br)cc3Cl)c(C(=O)NOCCO)cc21 + COc1c(OCCCN2CCOCC2)ccc2c3n(c(=NC(=O)c4cnc(N)nc4)nc12)CCN3
- viability, T/C (second compound 0.00316 µM, first compound 0.00949 µM): 59.8%
- viability, T/C (second compound 0.00316 µM, first compound 0.03 µM): 43.9%
- viability, T/C (second compound 0.00316 µM, first compound 0.0949 µM): 37.1%
- viability, T/C (second compound 0.00316 µM, first compound 0.3 µM): 39.7%
- viability, T/C (second compound 0.00316 µM, first compound 0.949 µM): 22.8%
- viability, T/C (second compound 0.00316 µM, first compound 3 µM): 18.9%
- viability, T/C (second compound 0.01 µM, first compound 0.00949 µM): 44.2%
- viability, T/C (second compound 0.01 µM, first compound 0.03 µM): 42.5%
- viability, T/C (second compound 0.01 µM, first compound 0.0949 µM): 27%
- viability, T/C (second compound 0.01 µM, first compound 0.3 µM): 21.2%
- viability, T/C (second compound 0.01 µM, first compound 0.949 µM): 22.8%
- viability, T/C (second compound 0.01 µM, first compound 3 µM): 15.2%
- viability, T/C (second compound 0.0316 µM, first compound 0.00949 µM): 23.1%
- viability, T/C (second compound 0.0316 µM, first compound 0.03 µM): 20.8%
- viability, T/C (second compound 0.0316 µM, first compound 0.0949 µM): 16.4%
- viability, T/C (second compound 0.0316 µM, first compound 0.3 µM): 14.1%
- viability, T/C (second compound 0.0316 µM, first compound 0.949 µM): 11.8%
- viability, T/C (second compound 0.0316 µM, first compound 3 µM): 7.94%
- viability, T/C (second compound 0.1 µM, first compound 0.00949 µM): 9.95%
- viability, T/C (second compound 0.1 µM, first compound 0.03 µM): 7.44%
- viability, T/C (second compound 0.1 µM, first compound 0.0949 µM): 5.9%
- viability, T/C (second compound 0.1 µM, first compound 0.3 µM): 4.34%
- viability, T/C (second compound 0.1 µM, first compound 0.949 µM): 3.93%
- viability, T/C (second compound 0.1 µM, first compound 3 µM): 2.03%
- viability, T/C (second compound 0.316 µM, first compound 0.00949 µM): 3.44%
- viability, T/C (second compound 0.316 µM, first compound 0.03 µM): 2.07%
- viability, T/C (second compound 0.316 µM, first compound 0.0949 µM): 1.3%
- viability, T/C (second compound 0.316 µM, first compound 0.3 µM): 1.34%
- viability, T/C (second compound 0.316 µM, first compound 0.949 µM): 0.72%
- viability, T/C (second compound 0.316 µM, first compound 3 µM): 0.47%
- viability, T/C (second compound 1 µM, first compound 0.00949 µM): 1.2%
- viability, T/C (second compound 1 µM, first compound 0.03 µM): 0.53%
- viability, T/C (second compound 1 µM, first compound 0.0949 µM): 0.38%
- viability, T/C (second compound 1 µM, first compound 0.3 µM): 0.39%
- viability, T/C (second compound 1 µM, first compound 0.949 µM): 0.18%
- viability, T/C (second compound 1 µM, first compound 3 µM): 0.21%
